Patent US12558325B2, “Methods for improving neurological diseases and disorders” (CuraSen Therapeutics, Inc., priority 2019, dated 2026)
Entries after “also recorded” stand apart in the source; their conditions may differ.

How the values were obtained:
[1] = system: subjects; assay: Visual verbal learning test (VVLT); assay type: in vivo, human; conditions: crossover study; for effect on the VVLT (learning and memory): 3 agents plus placebo
Description: The visual verbal learning test (VVLT) is a test for learning and memory (de Haas 2009). Subjects are presented 30 words on a screen, one at a time, for 1 second with a 1-second interval between words over a total of 1 minute. This is repeated in 3 trials. After each trial, subjects are asked to recall as many words as they can. After the third trial, there is a delay of 2.5 hours and subjects are then tested once for delayed recall. […] Since this was a crossover study, everyone who completed Part A was dosed with the 3 agents plus placebo.

[2] = system: Ts65Dn mice; conditions: increasing brain NE levels; cited from earlier work
[3] = system: healthy subjects; assay: Adaptive tracking test (visuomotor coordination and vigilance); assay type: in vivo, human; conditions: single dose of 160 μg clenbuterol
Text: Adaptive tracking measures visuomotor coordination and vigilance. In this test, the subject uses a joystick to move a small dot so that it stays within a continuously moving circle on a computer screen (Boland 1984). During the test, the speed of the circle is adjusted in response to the subject's ability to keep the dot in the circle, ensuring that the test is adapted to the individual subject. […] The improvement shown by subjects is in the same range as that seen with subjects treated with the acetylcholinesterase inhibitor donepezil, which is in clinical use for the treatment of mild to moderate AD (Groeneveld 2016).

[4] = system: patients; assay: Cerebral blood flow relative to baseline after a single dose (Example 1); assay type: in vivo, human
[5] = system: healthy subjects; assay: ASL MRI cerebral perfusion before and after a single dose (Example 3); assay type: in vivo, human
Description: In a clinical study, healthy subjects were administered doses of clenbuterol ranging from 20 to 160 μg and ASL MRI was conducted prior to and after dosing with an objective to ascertain whether this neuroimaging method enables the detection of a clinically relevant CNS signal.
In a region of interest (ROI) analysis focusing on the hippocampus, which is well understood to be affected in neurodegenerative disorders, a single dose of 80 μg of clenbuterol causes a robust increase in perfusion (see FIG. 7). […] Taken together with other cohorts in which ASL MRI was conducted, a clear dose response relationship is seen between dose of clenbuterol and cerebral perfusion (FIG. 8). […] Our hypothesis is that by improving cerebral perfusion, particularly in areas of the brain that are relevant for symptoms that are commonly found in neurodegenerative diseases such as PD and AD, the administration of a β2-AR agonist will have a positive effect on clinically relevant symptoms such as memory and cognition.

Compound: CC(C)(C)NCC(O)c1ccc(O)c(CO)c1 (stereo not shown) [salbutamol]
- effect on the VVLT (learning and memory) [1]: positive effects

Compound: CC(C)NCC(O)COc1cccc2[nH]ccc12 (stereo not shown) [pindolol]
- effect on the VVLT (learning and memory) [1]: detrimental effect

Compound: N[C@H](C(=O)O)[C@H](O)c1ccc(O)c(O)c1 [L-DOPS, L-threo-3,4-dihydroxyphenylserine]
- contextual learning [2]: restored contextual learning

Compound: CC(C)(C)NCC(O)c1cc(Cl)c(N)c(Cl)c1 (stereo not shown) [clenbuterol]
- performance in adaptive tracking (percent time dot kept within moving circle) [3]: improved
- cognition as measured by adaptive tracking and word recall ([3]; healthy subjects, preliminary data): improves cognition
- cerebral blood flow (CBF) relative to the baseline ([4]; single dose of clenbuterol 160 μg): robust global increase; also recorded: positive increase
- cerebral blood flow (CBF) relative to the baseline ([4]; single dose of clenbuterol ranging from 30 to 160 μg, tracked over 3 days): robust global increase
- cerebral perfusion increase as measured by CBF ([5]; clenbuterol dose of 40 μg): minimal increase
- cerebral perfusion increase as measured by CBF ([5]; clenbuterol doses below 30 μg): do not produce significant cerebral perfusion increases
- improvements in perfusion in brain areas relevant to neurodegenerative disorders ([5]; doses of 80 and 160 μg clenbuterol): ~25%
- global perfusion ([5]; doses of 80 and 160 μg clenbuterol, ASL MRI): robust, global increase
- increase in hippocampal perfusion, on average ([5]; single dose of 80 μg clenbuterol, 6 healthy subjects aged 44 to 52, ROI hippocampus): 25%
- cerebral perfusion (global; hippocampus, thalamus, cortex) ([5]; single dose of 160 μg clenbuterol, ASL MRI): robust global increase
- VVLT performance, immediate recall (Trial 1) [1]: improved performance
- effect on the VVLT (learning and memory) [1]: positive effects
- VVLT performance, delayed recall ([1]; recall after delay of 2.5 hours): improved performance
